Experimental data from US20110195910A1, “USE OF TOCOTRIENOL COMPOSITION FOR THE PREVENTION OF CANCER” (DAVOS LIFE SCIENCE PTE. LTD., priority 2008, published 2011).

Experiments:
MDA-MB-231 cells = assay: Flow cytometry, western blotting and RT-PCR, MDA-MB-231 cells; format: cell-based, human; settings: MDA-MB-231
Experimental: 1.1.3 Flow cytometry—Cell cycle distribution was examined using flow cytometry. Briefly, cells were harvested by trypsinization, fixed in 70% ethanol at 4° C. overnight, and then resuspended in PBS. After incubation at 4° C. for overnight, 2×10^6 cells were incubated with in 20 μg/ml propidium iodide (PI) and 2 mg RNaseA for 15 minutes at 37° C. Cells were then examined by BD SLRII cytometer and the results were analyzed using ModFit software (Becton Dickinson, Mountain View, Calif.). Data were expressed as the percentage of cell cycle distribution in the entire population.
1.1.5 Western blotting—Detailed protocols have been described previously and are known in the art. Briefly, cell lysates were prepared by suspending cell pellets in lysis buffer [50 mmol/l Tris-HCl (pH 8.0), 150 mmol/l NaCl, 1% NP40, 0.5% deoxycholate, 0.1% SDS, 1 mg/ml aprotinin, 1 μg/ml leupeptin and 1 mmol/l phenylmethylsulfonyl fluoride]. For nuclear protein extraction, NucBuster™ protein extraction kit was used. Protein concentration was measured using the DC Protein Assay kit (Bio-Rad, Hercules, Calif.). Equal amount of protein (30 μg) was loaded onto a 10% SDS polyacrylamide gel for electrophoresis and then transferred onto a polyvinylidene difluoride membrane (Amersham, Piscataway, N.J.). The membrane was then incubated with primary antibodies for 1 hr at room temperature against E-cadherin (BD Biosciences, Bedford, Mass.), α-catenin, β-catenin, γ-catenin, Id-1, Id-3, EGFR, phosphor-c-jun, phosphor-ATF2, cleaved PARP, vimentin, α-smooth muscle actin, twist (Santa Cruz Biotechnology, Calif.), phosphor-IkB-alpha (Ser32/36), phosphor-IKK alpha (Seri 80)/IKK beta (Ser181), phosphor-SAPK/JNK (Thr183/Tyr185) G9, SAPK/JNK, NF-kB p65 (5A5) (Cell Signaling Technology Inc, Beverly, Mass.), Snail (Abcam). After incubation with appropriate secondary antibodies, signals were visualized by ECL western blotting system (Amersham, Piscataway, N.J.). Expression of β-actin and histone H1 were assessed as an internal loading control for total cell lysate and nuclear protein lysate respectively.
3.1.5 DNA fragmentation assay—After 24 hrs incubation with gamma-T3, 3×10^6 MDA-MB-231 cells were harvested and suspended in lysis buffer [5 mM Tris-HCl (pH 8.0), 20 mM EDTA, and 0.5% (v/v) Triton X-100] for 60 min on ice. Samples were centrifuged, the supernatants were removed and incubated with 5 μl RNase A (10 μg/ml) at 37° C. for 40 min, and 1 ml of anhydrous ethanol was added. Tubes were placed at […] for 20 min and then centrifuged to pellet the DNA. DNA samples were analyzed by electrophoresis at 80 V for 3 hrs on a 2% agarose gel containing ethidium bromide (0.2 μg/ml) and visualized under UV illumination.
3.1.6 Terminal deoxynucleotidyltransferase-mediated deoxyuridine triphosphate nick end-labelling (TUNEL) assay—DNA strand breaks during apoptosis was examined using in situ cell death detection reagent (Roche Applied Science). Briefly, 1×10^6 cells were pretreated with gamma-T3 for 24 hrs. Thereafter, cells were incubated with reaction mixture for 60 min at 37° C. Stained cells were analyzed and captured by fluorescence microscope on glass slide.
3.1.7 Flow cytometry was carried out as described above under item 1.1.3. Matrigel-invasion assay was carried out as described above under item 1.1.4. Western blotting was carried out as described above under item 1.1.5.
3.1.8 Id-1 RT-PCR—Total RNA was isolated using Trizol® reagent according to the manufacturer's protocol (Invitrogen). cDNA was synthesized using the SuperScript™ First Strand Synthesis System (Invitrogen) and was then amplified by PCR with Id-1 specific primers (forward primer, Id1-S, 5′-CTCCAGCACGTCATCGACTA-3′ and reverse primer, Id1-AS,5′-AAC GCA TGC CGC CTC-3′). PCR cycling protocol was as follows: 30 cycles of 10 min at 95° C., 30 s at 95° C., 30 s at 55° C., 1 min at 72° C. and 10 min at 72° C. Glyceraldehyde 3-phosphate dehydrogenase was amplified as an internal control. […]

[1] = test system: human androgen-dependent PCa cells (LNCaP); assay: MTT cell viability, LNCaP cells; format: cell-based
Experimental: 2.1.3 Cell viability study and time course experiment—For cell viability study, 5×10^3 cells resuspended in 100 μl medium were plated into each well of a 96-well plate. The cells were then treated with different concentrations (20, 40, 60, 80, 100 μM) of the vitamin-E isomers for 24 and 48 hrs. After the treatment, 20 μl of MTT solution was added into each well and the cells were incubated at 37° C. for 2 hrs. The formazan crystals were then re-suspended in 200 μl of DMSO and the intensity at 595 nm were measured. For JNK inhibitor study, cells were pre-treated with 20 μM of SP600125 for 8 hrs prior to the addition of vitamin-E isomers. For time course study, 5×10^3 cells (LNCaP and PC3) were treated with IC50 concentrations of the vitamin-E isomers and were subjected to MTT assay at the indicated time point. […] After 24 hrs, cells were subjected to western blotting and MTT assays respectively.

[2] = test system: human estrogen-independent BCa cells (MDA-MB-231); assay: MTT cell viability, MDA-MB-231 cells; format: cell-based; settings: MDA-MB-231, 24 hours
Experimental: 1.1.3 Cell viability study and time course experiment—For cell viability study, 1×10^4 cells resuspended in 100 μl medium were plated into each well of a 96-well plate. The cells were then treated with different concentrations of the vitamin-E isomers for 24 hrs. After the treatment, 20 μl of 3-(4,5-Dimethyl thiazol-2-yl)-2,5-diphenyl tetrazolium bromide (MTT) solution was added into each well and the cells were incubated at 37° C. for 2 hrs. The formazan crystals were then re-suspended in 200 μl of DMSO and the intensity at 595 nm was measured. For JNK inhibitor study, cells were pre-treated with 20 μM of SP600125 for 8 hrs prior to the addition of vitamin-E isomers. For time course study, 5×10^3 cells were treated with different concentrations of the vitamin-E isomers and were subjected to MTT cell proliferation assay at the indicated time point. If IC50 for the isomer is >100 μM, 100 μM will be used as treatment dosage.
3.1.4 Cell viability and time course experiments were carried out as described above under item 1.1.3 with the following difference. For inhibitors study, cells were pre-treated with inhibitors (U0126, PD98059 and APN) at targeted dosage for 8 hrs prior to the addition of vitamin-E isomers.

DU145 prostaspheres = assay: Treatment of pre-formed CSC-enriched DU145 prostaspheres; format: cell-based; settings: 40 ng/ml, 48 hrs
Experimental: (A) CSC enriched prostaspheres were formed by maintaining DU145 cells in non-adherent culture supplemented with serum replacement medium for 14 days. The prostaspheres were then treated with either vehicle, γ-T3 (10, 20 μg/ml) or Docetaxel (Doc, 40 ng/ml) for 48 hrs. Spheroids were counted under microscope before and after treatment. Results were presented as mean % change in spheroid number to control±s.d. Note that spheroids were highly sensitive to γ-T3 treatment but resistant to high dose of Docetaxel. (B) Images of prostaspheres after 48 hrs treatment with vehicle, 40 ng/ml of Docetaxel and 10 μg/ml of γ-T3.
5.1.7 Spheroid formation assay—Spheroid formation assay was performed with a protocol modified from previous study (Folkins C, p3560). Briefly, cells were first trypsinized, washed with 1× PBS and resuspended in DMEM F12 medium. Two hundred cells were added into each well of a 24-well-plate pre-coated with polyHEMA (Sigma, St. Louis, Mo.). Cells will be grown in DMEM/F12 mem (Invitrogen, Carlsbad, Calif.) supplemented with 4 μg/mL insulin (Sigma, St. Louis, Mo.), B27 (Invitrogen, Carlsbad, Calif.), 20 ng/mL EGF (Sigma, St. Louis, Mo.), and 20 ng/mL basic FGF (Invitrogen, Carlsbad, Calif.). Fresh medium with the above supplements was added every day. γ-T3 was added at indicated time points and the number of spheroids was counted at day 14 of the assay or at the end of the treatment. Each experiment was repeated in triplicates and each data point represented the mean and standard derivation.

DU145 = settings: cited from earlier work
[3] = test system: prostate intraepithelial neoplasia (PIN); assay: Prevention of prostate intraepithelial neoplasia (PIN) in prostate cancer mouse models; format: in vivo; settings: fed mice, FIG. 8
Experimental: For experiments, 5-week old prostate cancer mouse models previously published (Gabril, M. Y., Duan, W., et al., Molecular Therapy (2005), vol. 11, no. 3, p. 348; Greenberg et al., Proc Natl Acad Sci USA (1995), vol. 92, pp. 3439-3443; Duan, W., Gabril, M. Y., et al., Oncogene (2005) 24, 1510-1524; Wang S, Gao J, et al., Cancer Cell., 2003, vol. 4, no. 3, pp. 209-21; Gabril, M. Y., Onita, T., et al., Gene Ther., 2002, vol. 9, no. 23, pp. 1589-99) are used. All animal experiments were conducted according to standard protocols approved by Animal Care Committee. Genotyping was performed in PSP-TGMAP, and KIMAP mice were identified by a quick PCR genotyping protocol as previously reported (see above references referred to under item 6).
In one exemplary experiment, the animals are given 1 mg of gamma tocotrienol per day for 30 weeks via oral gavage. At the end of 10, 20 and 30 weeks, animals are sacrificed. The prostate along with the male accessory glands, i.e., the ventral and dorsolateral prostate lobes, seminal vesicles, and coagulation gland, were dissected out separately for histopathological characterization of prostate tumor development, prostate intraepithelial neoplasia (PIN) development and microinvasion. […]

Compound: N#CCCN [β-aminopropionitrile, reference compound]
- Id1 expression on co-treatment with gamma-T3 (MDA-MB-231 cells): almost completely restored the expression of Id1

Compound: Cc1c(O)cc2c(c1C)O[C@](C)(CCC[C@H](C)CCC[C@H](C)CCCC(C)C)CC2 [γ-T, 7,8-dimethyltocol, reference compound]
- induction of apoptosis in LNCaP cells ([1]; data not shown): induce apoptosis in LNCaP cells at a dose similar to γ-T3

Compound: COc1cccc(-c2cc(=O)c3ccccc3o2)c1N [PD98059]
- cancer cell viability after gamma-T3 treatment with MAPK inhibitor [2]: not able to restore cancer cell viability

Compound: N#CC(=C(/N)Sc1ccccc1N)/C(C#N)=C(\N)Sc1ccccc1N [U0126]
- cancer cell viability after gamma-T3 treatment with MAPK inhibitor [2]: not able to restore cancer cell viability

Compound: CC(=O)O[C@@]12CO[C@@H]1C[C@H](O)[C@@]1(C)C(=O)[C@H](O)C3=C(C)[C@@H](OC(=O)[C@H](O)[C@@H](NC(=O)OC(C)(C)C)c4ccccc4)C[C@@](O)([C@@H](OC(=O)c4ccccc4)[C@H]21)C3(C)C [Docetaxel, (2R,3S)—N-carboxy-3-phenylisoserine, N-tert-butylester, 13-ester with 5,20-epoxy-1,2,4,7,10,13-hexahydroxytax-11-en-9-one-4-acetate-2-benzoate, trihydrate, reference compound]
- effect on prostasphere number (DU145 prostaspheres): failed to induce any observable effect on prostasphere number
- IC90 dosage (DU145): 1.01 ng/mL

Compound: CC(C)=CCC/C(C)=C/CC/C(C)=C/CC[C@]1(C)CCc2cc(O)cc(C)c2O1 [δ-T3, 8-methyltocotrienol]
- potency in suppressing cell growth in LNCaP ([1]; compared with the other isomers): more potent
- development of prostate intraepithelial neoplasia (PIN) [3]: did not develop PIN
